Source: the kinase profiling compilation of Christmann-Franck et al. (2016)

Tested on: ARAF (human), P10398 [Y301D/Y302D]
Assay: radiometric filter-binding kinase assay, Kinase HotSpot
Settings: compound 0.5 µM; ATP 10 µM

ARAF (human), P10398 [Y301D/Y302D], sequence (P10398 whole entry Y301D/Y302D, looked up): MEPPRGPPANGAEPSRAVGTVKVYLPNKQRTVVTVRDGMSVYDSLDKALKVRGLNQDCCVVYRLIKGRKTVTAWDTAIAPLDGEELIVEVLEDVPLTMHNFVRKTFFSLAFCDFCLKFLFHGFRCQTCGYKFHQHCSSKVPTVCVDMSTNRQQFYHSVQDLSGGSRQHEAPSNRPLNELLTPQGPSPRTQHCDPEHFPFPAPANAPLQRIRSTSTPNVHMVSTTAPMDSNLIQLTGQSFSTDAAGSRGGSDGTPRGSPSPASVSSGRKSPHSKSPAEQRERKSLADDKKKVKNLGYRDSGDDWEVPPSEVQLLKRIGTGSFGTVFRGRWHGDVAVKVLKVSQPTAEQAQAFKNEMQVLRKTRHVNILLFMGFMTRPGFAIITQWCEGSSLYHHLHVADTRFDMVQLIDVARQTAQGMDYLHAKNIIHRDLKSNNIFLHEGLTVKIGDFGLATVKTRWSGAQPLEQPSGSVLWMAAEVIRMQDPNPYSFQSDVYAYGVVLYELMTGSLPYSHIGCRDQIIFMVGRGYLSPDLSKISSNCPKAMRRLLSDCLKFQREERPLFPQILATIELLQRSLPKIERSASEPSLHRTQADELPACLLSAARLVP

SMILES	residual activity
O=C(O)c1ccc2c3c1cccc3c(=O)n1c3ccccc3nc21	101%
O=C1Nc2ccc(Br)cc2/C1=C\c1cc2c([nH]1)CCCC2	106%
O=c1[nH]c2ccccc2n1C1CCN(Cc2ccc(-c3nc4cc5[nH]cnc5cc4nc3-c3ccccc3)cc2)CC1	99.2%
O=C1Nc2ccccc2/C1=C1\Nc2ccccc2\C1=N/O	100%
C[C@@H]1CCN(C(=O)CC#N)C[C@@H]1N(C)c1ncnc2[nH]ccc12	102%
COc1ccc(OC)c2c(=S)c3ccccc3[nH]c12	122%
COc1cc(Nc2c(C#N)cnc3cc(OCCCN4CCN(C)CC4)c(OC)cc23)c(Cl)cc1Cl	109%
CC(C)N(CCC(=O)c1ccc2ccccc2c1)Cc1ccccc1	104%
COc1cc2c(N3CCN(C(=O)Nc4ccc(OC(C)C)cc4)CC3)ncnc2cc1OCCCN1CCCCC1	103%
Nc1cccc(-c2cc3c(Oc4cccc(O)c4)ncnc3[nH]2)c1	57.3%
COc1cc2ncc(-c3ccccc3)nc2cc1OC	87.6%
COc1ccc(CNC(=O)Nc2ncc([N+](=O)[O-])s2)cc1	91%
FC(F)(F)c1ccc(/C=C/c2nc(COc3ccc(CCCCn4ccnn4)cc3)co2)cc1	102%
N#Cc1c[nH]c2c[nH]/c(=N\Cc3cccnc3)cc2/c1=N\c1ccc(F)c(Cl)c1	106%
COc1cc2c(cc1OC)-c1[nH]nc(Nc3cccc(F)c3)c1C2	98.9%
O=C1NC(=O)C(c2c[nH]c3ccccc23)=C1c1c[nH]c2ccccc12	155%
Cc1cc(Nc2nc(-c3ccccc3)nc3ccccc23)n[nH]1	89.7%
O=c1cc(N2CCOCC2)oc2c(-c3ccccc3)cccc12	105%
CC#CC(=O)Nc1cc2c(Nc3ccc(F)c(Cl)c3)ncnc2cn1	74.1%
c1ccc2c(-c3ccncc3)c[nH]c2c1	97.7%
O=C1NC(=O)/C(=C/c2ccc3c(c2)OC(F)(F)O3)S1	104%
c1ccc(-c2n[nH]cc2-c2ccnc3ccccc23)nc1	91.5%
CN(C)S(=O)(=O)c1ccc2c(c1)/C(=C/c1cc3c([nH]1)CCCC3)C(=O)N2	105%
Oc1cccc(-c2nc(N3CCOCC3)c3oc4ncccc4c3n2)c1	92%
COc1cc2ncnc(Nc3ccc(Oc4ccccc4)cc3)c2cc1OC	73.3%
CN(C)C[C@H]1CCn2c(c(C3=C(c4cn(C)c5ccccc45)C(=O)NC3=O)c3ccccc32)C1	109%

SMILES	residual activity
COc1ccc(COc2ccc(Cc3cnc(N)nc3N)cc2OC)cc1	96.6%
CCc1nc(-c2ccc(OC)cc2)[nH]c1-c1ccncc1	99.6%
CCN(CC)CCNC(=O)c1c(C)[nH]c(/C=C2\C(=O)Nc3ccc(F)cc32)c1C	124%
CCC(=O)Nc1ccc2ncnc(Nc3cccc(Br)c3)c2c1	93.4%
COc1cc2ncnc(Nc3cccc(Cl)c3)c2cc1OC	108%
CS(=O)(=O)CCNCc1ccc(-c2ccc3ncnc(Nc4ccc(OCc5cccc(F)c5)c(Cl)c4)c3c2)o1	85%
O=C1Cc2c([nH]c3ccc(Br)cc23)-c2ccccc2N1	104%
CCOC(=O)c1c(C)[nH]c(/C=C2\C(=O)Nc3ccccc32)c1C	94.7%
CC(C)[C@H](CO)Nc1nc(Nc2cc(N)cc(Cl)c2)c2ncn(C(C)C)c2n1	82.4%
Cc1cccc(-c2nc(C(C)(C)C)[nH]c2-c2ccc3c(c2)OCO3)n1	99.1%
O=C(CCCc1ccc(-c2ccccc2F)cc1)Nc1ccc(O)cc1	104%
CNC(=O)c1cc(Oc2ccc(NC(=O)Nc3ccc(Cl)c(C(F)(F)F)c3)cc2)ccn1	7.04%
Cn1sc(=O)n(Cc2ccccc2)c1=O	94.6%
N#CC(C#N)=C(N)/C(C#N)=C/c1ccc(O)cc1	90.8%
Nc1nnc2[nH]c3ccccc3nc1-2	119%
N#Cc1c(NC(=O)c2cccc3ccccc23)sc2c1CCCC2	104%
N#C/C(=C1/Nc2ccccc2S1)c1ccnc(NCCc2cccnc2)n1	97.6%
CCN(CC)CCNC(=O)c1c(C)[nH]c(/C=C2\C(=O)Nc3ccc(Cl)cc32)c1C	132%
Cn1c2ccccc2c2c3c(c4c5ccccc5n(CCC#N)c4c21)CNC3=O	103%
N#C/C(=C(/N)Sc1ccc(N)cc1)c1ccccc1C(F)(F)F	98.8%
O=C(Nc1cccc(Nc2cc(Nc3cccc(C(F)(F)F)c3)ncn2)c1)C1CC1	95.1%
CCOc1cc2ncnc(Nc3cccc(Br)c3)c2cc1OCC	105%
Nc1ncnc2[nH]nc(Nc3ccc(F)cc3)c12	80.7%
CN(C)CCCn1cc(C2=C(c3c[nH]c4ccccc34)C(=O)NC2=O)c2ccccc21	100%
COc1ccc2c(c1)/C(=C/c1cnc[nH]1)C(O)=N2	111%
O=C(Nc1cccc(Nc2nccc(Nc3cccc(C(F)(F)F)c3)n2)c1)C1CC1	90.2%

SMILES	residual activity
O=C(c1cc2cc(O)ccc2[nH]1)c1cc2cc(O)ccc2[nH]1	98.6%
CCn1cnc2c(Nc3cccc(Cl)c3)nc(N[C@@H]3CCCC[C@@H]3N)nc21	116%
O=C1NC(=O)/C(=C\c2ccc3nccnc3c2)S1	103%
N#CCCc1ccc2c(c1)-c1[nH]c3ccc([N+](=O)[O-])cc3c1CC(=O)N2	94.5%
COc1cccc(-c2cc(=O)c3ccccc3o2)c1N	98.9%
COc1cc2ncnc(N3CCN(C(=O)Nc4ccc(Oc5ccccc5)cc4)CC3)c2cc1OC	105%
CN(C)c1ccc(/C=C2\C(=O)Nc3ccccc32)cc1	94.3%
O=C1NC(=O)c2cc(Nc3ccc(F)cc3)c(Nc3ccc(F)cc3)cc21	90.7%
c1ccc(-c2n[nH]c3c2oc2ccccc23)cc1	93.8%
O=C1C(Cl)=C(N2C(=O)CCC2=O)C(=O)c2ccccc21	105%
Nc1ncnc2c1cnn2-c1ccccc1	99.3%
COc1ccc(Cl)cc1NC(=O)Nc1cc(C)nc2ccccc12	92.4%
Nc1nccc(-c2c(-c3ccc(F)cc3)ncn2C2CCNCC2)n1	93.1%
Cc1ccc(Nc2nccc(N(C)c3ccc4c(C)n(C)nc4c3)n2)cc1S(N)(=O)=O	76.5%
CCN(CC)CCCCN1c2ccccc2Oc2ccc(Cl)cc21	103%
O=C1NC(=O)c2c1c1c3ccccc3[nH]c1n1cncc21	93.8%
Nc1ncnc2c1c(-c1ccc(Oc3ccccc3)cc1)cn2C1CCCC1	53%
Cc1[nH]c(/C=C2\C(=O)Nc3ccc(S(=O)(=O)N(C)c4cccc(Cl)c4)cc32)c(C)c1C(=O)N1CCN(C)CC1	120%
COc1cc2c(Nc3ccc(Br)cc3F)ncnc2cc1OCC1CCN(C)CC1	84%
Cn1cnc2cc3c(Nc4cccc(Br)c4)ncnc3cc21	119%
CO[C@@H]1[C@H](N(C)C(=O)c2ccccc2)C[C@H]2O[C@]1(C)n1c3ccccc3c3c4c(c5c6ccccc6n2c5c31)C(=O)NC4	122%
CC[n+]1c(/C=C/N(C)c2ccccc2)n(-c2ccccc2)c2ccc(-c3nc4ccccc4s3)cc21	102%
CCCCc1c(-c2ccc(O)cc2)[nH]c2nccnc12	92.6%
N#C/C(=C\c1ccc(O)c(O)c1)C(=O)NCc1ccccc1	95.2%
